Assay results taken from publication PMC5668434, “Modulation of telomere protection by the PI3K/AKT pathway” (Nature Communications, 2017).
Where two headings read alike, the source gives them in different places.

Assays:
[1] = test system: panel of 24 kinases representing the human kinome; assay: ProQinase 24 kinase selectivity panel (whole panel); format: biochemical; details: 1 µM
Method: The kinase selectivity of the inhibitors used here was ensured in order to discard potential off-targets effects contributing to the observed TRF1 modulation.
(§1) Supplementary Table 1: Kinase selectivity profile of ETP-47037 and ETP-47228 at 1 µM. Selectivity against protein kinases was determined from evaluation of compounds at 1µM in ProQinase’s 24 selected panel that represents the ACG, STE, TKL, TK, CMGC CAMK and CK1 kinase families.

[2] = test system: p-AKT S473 in CHA-9.3 mouse lung cancer cell line; assay: Western blot of AKT phosphorylation at Ser473 in CHA-9.3 cells; format: cell-based; details: for p-AKT S473 inhibition (in words): 10 μM time course; for inhibition at 10 µM: Mus musculus
Method: These new chemical probes were prepared by replacement of a single key oxygen atom from the morpholine moiety by a methylene group, generating the piperidine derivatives ETP-51259 and ETP-50952 (Fig. 1a). To assess their PI3K cellular activity, we measured phosphorylation of residue Ser473 in AKT (p-AKT S473), a PI3K downstream target[61]–[63], by western blot analysis. To this end, we used the CHA-9.3 mouse lung cancer cell line previously generated by us[39]. […] Of note, the inhibitory activity of ETP-47037 was more prolonged than that of ETP-47228. Thus, ETP-47037 mediated p-AKT S473 inhibition was maintained during the 24-hour treatment while the ETP-47228 mediated inhibition decreased 35% after 24 h as compared to 1-h treatment but still was able to inhibit the pathway above 50% (Fig. 1c).
(§2) For detection of AKT, PRAS40 (T246) and pS6 in CHA9.3 cells, untreated control (DMSO) or treated with the indicated inhibitors, were lysed in RIPA buffer supplemented with 100 mM pefablock (Roche Diagnostics) and protease inhibitor cocktail (Roche Molecular Biochemicals). Proteins were resolved on 10% SDS-PAGE, and transferred to nitrocellulose membrane (Amersham^TM Protan^TM 0.2 µm nNC). Membranes were incubated with antibodies against phospho-AKT (Ser473), AKT, phospo-S6 (Ser 235/236), and S6Ribosomal from Cell Signaling, phospo-PRAS40 (Thr246) from BIOSURCE and anti α-tubulin form Sigma, overnight at 4 °C. After washing, blots were incubated with secondary antibody: Alexa Fluor 680 goat anti-rabbit IgG (Invitrogen) or anti-mouse IgG DyLight 800 conjugated (Thermo Scientific), and visualized using an Odyssey infrared imaging system (Li-Cor Biosciences).

PI3K (p110α) = molecular target: T1, PI3K (p110α) (Homo sapiens, UniProt P42336); assay: PI3K alpha biochemical assay (ADP Hunter Plus); details: internal data; read-out: PI3Kα IC50
T1 construct: purchased Cama Biosciences (sic; Carna Biosciences) #07CBS-0402A
T1 sequence (P42336 whole entry): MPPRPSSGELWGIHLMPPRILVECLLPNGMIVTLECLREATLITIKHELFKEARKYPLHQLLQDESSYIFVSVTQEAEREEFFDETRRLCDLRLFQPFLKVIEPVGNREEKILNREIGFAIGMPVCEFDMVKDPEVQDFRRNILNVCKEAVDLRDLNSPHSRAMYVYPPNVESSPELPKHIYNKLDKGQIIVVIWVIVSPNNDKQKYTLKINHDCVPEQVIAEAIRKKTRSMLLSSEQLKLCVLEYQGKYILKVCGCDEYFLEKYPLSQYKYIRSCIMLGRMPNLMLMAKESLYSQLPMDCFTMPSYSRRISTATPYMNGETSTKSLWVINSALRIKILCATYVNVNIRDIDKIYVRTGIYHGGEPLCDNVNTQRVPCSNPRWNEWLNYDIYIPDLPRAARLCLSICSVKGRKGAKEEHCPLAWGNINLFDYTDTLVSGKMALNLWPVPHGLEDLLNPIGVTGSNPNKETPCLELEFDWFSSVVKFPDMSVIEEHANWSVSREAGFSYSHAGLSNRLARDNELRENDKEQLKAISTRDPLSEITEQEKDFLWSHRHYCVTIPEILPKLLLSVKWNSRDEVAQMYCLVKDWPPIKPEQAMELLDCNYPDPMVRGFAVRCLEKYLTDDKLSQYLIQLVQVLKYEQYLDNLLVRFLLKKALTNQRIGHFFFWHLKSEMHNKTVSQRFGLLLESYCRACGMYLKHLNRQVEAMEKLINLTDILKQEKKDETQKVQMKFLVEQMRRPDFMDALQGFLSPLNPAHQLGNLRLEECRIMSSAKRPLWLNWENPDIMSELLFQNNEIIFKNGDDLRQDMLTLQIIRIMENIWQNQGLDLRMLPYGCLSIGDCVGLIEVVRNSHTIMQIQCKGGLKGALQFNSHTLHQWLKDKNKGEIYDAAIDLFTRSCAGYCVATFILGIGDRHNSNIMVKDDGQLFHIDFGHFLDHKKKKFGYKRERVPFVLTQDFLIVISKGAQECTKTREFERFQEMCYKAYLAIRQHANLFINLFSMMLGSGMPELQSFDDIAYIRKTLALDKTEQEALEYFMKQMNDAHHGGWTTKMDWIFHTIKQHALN
T1 sequence (P27986 whole entry partner): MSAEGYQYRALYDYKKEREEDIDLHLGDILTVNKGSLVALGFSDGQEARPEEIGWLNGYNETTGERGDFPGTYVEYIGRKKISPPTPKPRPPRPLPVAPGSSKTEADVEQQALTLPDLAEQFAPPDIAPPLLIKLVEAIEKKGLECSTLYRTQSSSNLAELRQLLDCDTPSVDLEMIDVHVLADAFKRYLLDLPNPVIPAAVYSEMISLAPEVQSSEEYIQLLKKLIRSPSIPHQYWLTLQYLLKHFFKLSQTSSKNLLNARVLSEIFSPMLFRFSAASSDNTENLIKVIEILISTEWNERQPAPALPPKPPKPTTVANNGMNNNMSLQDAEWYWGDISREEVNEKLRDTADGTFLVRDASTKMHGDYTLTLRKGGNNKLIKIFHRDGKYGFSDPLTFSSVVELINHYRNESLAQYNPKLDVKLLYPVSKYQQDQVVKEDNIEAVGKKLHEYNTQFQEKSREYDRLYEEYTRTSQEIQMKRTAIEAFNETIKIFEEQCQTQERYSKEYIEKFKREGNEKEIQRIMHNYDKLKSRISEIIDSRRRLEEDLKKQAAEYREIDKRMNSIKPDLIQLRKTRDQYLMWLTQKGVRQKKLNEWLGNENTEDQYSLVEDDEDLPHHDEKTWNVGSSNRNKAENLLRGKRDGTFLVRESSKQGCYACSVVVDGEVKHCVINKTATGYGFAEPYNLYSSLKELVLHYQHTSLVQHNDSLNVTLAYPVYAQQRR

CHA 9-3 cells = assay: Multitelomeric signals (MTS) by Q-FISH on metaphase spreads; format: cell-based, mouse; details: 10 μM, 24 h
From the text: Trf1 abrogation is known to lead to a persistent DDR at telomeres, and to induction of telomere-induced chromosomal aberrations[28]–[30]. Trf1 genetic deletion induces the so-called multitelomeric signals (MTS), a chromosomal aberration related to increased telomere fragility during DNA replication, [29]. […] To this end, we treated CHA 9-3 cells with either DMSO, the AKT inhibitor MK-2206 (AKTi) and the PI3K inhibitors ETP-47037 or ETP-47228. For detection of MTS, we performed quantitative fluorescence in situ hybridization (Q-FISH) analysis on metaphase spreads using a telomeric probe to visualize telomeres (“Methods” section). MTS are visualized by presenting a multi-dot pattern at chromosome ends in contrast to normal telomeres that show a single dot at each chromosome end.
Lung cancer-derived cell line (CHA-9-3) and immortalized P110α ^lox/lox MEFS were treated either with 10 µM of ETP-47037, ETP-47228, or AKTi (MK-2206) for 24 h. Q-FISH in metaphase spreads was performed as described above, but increasing the concentration of formamide in both the incubation and the washes to 70%.

[3] = test system: PRAS40 (T246) and pS6 (S235/236) in CHA 9-3 cells; assay: Western blot of PI3K downstream targets PRAS40 (T246) and pS6 (S235/236); format: cell-based, mouse; details: 10 μM
Method: We also determined the effect of ETP-47037 and ETP-47228 in the inhibition of other PI3K downstream targets, PRAS40 (T246), and pS6 (S235/236)[64], [65] (Supplementary Fig. 1).
as §2
Supplementary Figure 1. Modulation of PI3K/AKT downstream targets by ETP-47037 and ETP-47228. Representative Western blot images of PRAS40 phosphorylation at T246 and of P6 at S235/236 in CHIA 9-3 lung cancer cell line treated for 24 hours with 10 µM of ETP-47037 or with 10 µM of ETP-47228 at different time points of the treatment. […]

IPSCs = test system: IPSCs; set-up: method as in PMID 25971796; details: cited from earlier work
IKK-beta = molecular target: T2, IKK-beta (Homo sapiens, UniProt O14920); assay: ProQinase kinase panel; format: biochemical; details: read-out: Inh (%) at 1µM, IKK-beta
T2 construct: purchased ProQinase
Method: as §1

AKT2 = molecular target: T3, AKT2 (Homo sapiens, UniProt P31751); assay: ProQinase kinase panel; format: biochemical; details: read-out: Inh (%) at 1µM, AKT2
T3 construct: purchased ProQinase
T3 sequence (P31751 whole entry): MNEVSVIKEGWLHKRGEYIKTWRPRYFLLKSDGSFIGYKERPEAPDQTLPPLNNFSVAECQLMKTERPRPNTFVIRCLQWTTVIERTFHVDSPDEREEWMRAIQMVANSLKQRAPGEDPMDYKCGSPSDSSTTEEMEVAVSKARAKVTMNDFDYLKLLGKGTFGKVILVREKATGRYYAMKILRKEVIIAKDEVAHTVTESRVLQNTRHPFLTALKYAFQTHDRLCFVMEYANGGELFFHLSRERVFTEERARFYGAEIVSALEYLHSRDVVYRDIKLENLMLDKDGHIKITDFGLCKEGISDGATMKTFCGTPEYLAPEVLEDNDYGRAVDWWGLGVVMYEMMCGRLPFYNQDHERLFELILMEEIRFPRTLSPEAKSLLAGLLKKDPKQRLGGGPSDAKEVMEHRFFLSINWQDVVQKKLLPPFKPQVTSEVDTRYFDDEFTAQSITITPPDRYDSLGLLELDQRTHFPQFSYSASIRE
Method: as §1

FAK = molecular target: T4, FAK (Homo sapiens, UniProt Q05397); assay: ProQinase kinase panel; format: biochemical; details: read-out: Inh (%) at 1µM, FAK
T4 construct: purchased ProQinase
T4 sequence (Q05397 whole entry): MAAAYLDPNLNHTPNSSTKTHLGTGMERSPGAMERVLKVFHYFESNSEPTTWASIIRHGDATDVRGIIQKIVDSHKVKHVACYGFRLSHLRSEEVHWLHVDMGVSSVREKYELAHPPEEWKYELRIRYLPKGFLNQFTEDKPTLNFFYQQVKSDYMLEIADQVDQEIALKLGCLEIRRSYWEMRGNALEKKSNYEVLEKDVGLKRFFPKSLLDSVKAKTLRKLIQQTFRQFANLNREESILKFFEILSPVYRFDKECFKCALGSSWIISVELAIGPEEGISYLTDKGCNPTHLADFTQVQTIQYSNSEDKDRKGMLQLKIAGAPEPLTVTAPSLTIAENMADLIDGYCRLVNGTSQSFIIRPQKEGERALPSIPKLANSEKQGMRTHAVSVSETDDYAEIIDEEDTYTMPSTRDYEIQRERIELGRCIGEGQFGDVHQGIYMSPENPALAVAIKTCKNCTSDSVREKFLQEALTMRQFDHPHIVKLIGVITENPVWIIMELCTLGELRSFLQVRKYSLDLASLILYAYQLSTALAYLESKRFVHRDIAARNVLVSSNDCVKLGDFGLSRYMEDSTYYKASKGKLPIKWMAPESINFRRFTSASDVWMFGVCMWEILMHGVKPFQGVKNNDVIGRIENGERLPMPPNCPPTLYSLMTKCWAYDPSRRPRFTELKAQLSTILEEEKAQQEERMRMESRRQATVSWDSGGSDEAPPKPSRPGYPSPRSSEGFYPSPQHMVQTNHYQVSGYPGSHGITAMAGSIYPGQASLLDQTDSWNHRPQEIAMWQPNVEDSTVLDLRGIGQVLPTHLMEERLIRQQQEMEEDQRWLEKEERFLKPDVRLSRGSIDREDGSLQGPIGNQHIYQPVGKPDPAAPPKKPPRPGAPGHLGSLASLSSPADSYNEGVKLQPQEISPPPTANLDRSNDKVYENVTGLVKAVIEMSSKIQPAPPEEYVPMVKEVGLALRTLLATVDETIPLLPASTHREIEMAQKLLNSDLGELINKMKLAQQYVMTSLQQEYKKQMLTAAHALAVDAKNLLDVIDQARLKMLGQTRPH
Method: as §1

RPS6KA1 = molecular target: T5, RPS6KA1 (Homo sapiens, UniProt Q15418); assay: ProQinase kinase panel; format: biochemical; details: read-out: Inh (%) at 1µM, RPS6KA1
T5 construct: purchased ProQinase
Method: as §1

INS-R = molecular target: T6, INS-R (Homo sapiens, UniProt P06213); assay: ProQinase kinase panel; format: biochemical; details: read-out: Inh (%) at 1µM, INS-R
T6 construct: purchased ProQinase
T6 sequence (P06213 980-1382 limits assumed): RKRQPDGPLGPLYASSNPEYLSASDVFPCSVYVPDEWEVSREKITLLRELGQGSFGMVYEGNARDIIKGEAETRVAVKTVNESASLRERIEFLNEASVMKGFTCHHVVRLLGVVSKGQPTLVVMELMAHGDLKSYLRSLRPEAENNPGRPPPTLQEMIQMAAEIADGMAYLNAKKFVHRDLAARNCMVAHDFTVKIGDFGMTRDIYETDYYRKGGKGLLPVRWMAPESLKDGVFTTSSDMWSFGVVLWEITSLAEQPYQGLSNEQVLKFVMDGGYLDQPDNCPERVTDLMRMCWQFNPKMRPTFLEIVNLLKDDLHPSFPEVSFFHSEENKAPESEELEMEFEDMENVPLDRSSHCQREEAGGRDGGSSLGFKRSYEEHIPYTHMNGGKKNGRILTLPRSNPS
Method: as §1

MET = molecular target: T7, MET (Homo sapiens, UniProt P08581); assay: ProQinase kinase panel; format: biochemical; details: read-out: Inh (%) at 1µM, MET
T7 construct: purchased ProQinase
T7 sequence (P08581 25-1390): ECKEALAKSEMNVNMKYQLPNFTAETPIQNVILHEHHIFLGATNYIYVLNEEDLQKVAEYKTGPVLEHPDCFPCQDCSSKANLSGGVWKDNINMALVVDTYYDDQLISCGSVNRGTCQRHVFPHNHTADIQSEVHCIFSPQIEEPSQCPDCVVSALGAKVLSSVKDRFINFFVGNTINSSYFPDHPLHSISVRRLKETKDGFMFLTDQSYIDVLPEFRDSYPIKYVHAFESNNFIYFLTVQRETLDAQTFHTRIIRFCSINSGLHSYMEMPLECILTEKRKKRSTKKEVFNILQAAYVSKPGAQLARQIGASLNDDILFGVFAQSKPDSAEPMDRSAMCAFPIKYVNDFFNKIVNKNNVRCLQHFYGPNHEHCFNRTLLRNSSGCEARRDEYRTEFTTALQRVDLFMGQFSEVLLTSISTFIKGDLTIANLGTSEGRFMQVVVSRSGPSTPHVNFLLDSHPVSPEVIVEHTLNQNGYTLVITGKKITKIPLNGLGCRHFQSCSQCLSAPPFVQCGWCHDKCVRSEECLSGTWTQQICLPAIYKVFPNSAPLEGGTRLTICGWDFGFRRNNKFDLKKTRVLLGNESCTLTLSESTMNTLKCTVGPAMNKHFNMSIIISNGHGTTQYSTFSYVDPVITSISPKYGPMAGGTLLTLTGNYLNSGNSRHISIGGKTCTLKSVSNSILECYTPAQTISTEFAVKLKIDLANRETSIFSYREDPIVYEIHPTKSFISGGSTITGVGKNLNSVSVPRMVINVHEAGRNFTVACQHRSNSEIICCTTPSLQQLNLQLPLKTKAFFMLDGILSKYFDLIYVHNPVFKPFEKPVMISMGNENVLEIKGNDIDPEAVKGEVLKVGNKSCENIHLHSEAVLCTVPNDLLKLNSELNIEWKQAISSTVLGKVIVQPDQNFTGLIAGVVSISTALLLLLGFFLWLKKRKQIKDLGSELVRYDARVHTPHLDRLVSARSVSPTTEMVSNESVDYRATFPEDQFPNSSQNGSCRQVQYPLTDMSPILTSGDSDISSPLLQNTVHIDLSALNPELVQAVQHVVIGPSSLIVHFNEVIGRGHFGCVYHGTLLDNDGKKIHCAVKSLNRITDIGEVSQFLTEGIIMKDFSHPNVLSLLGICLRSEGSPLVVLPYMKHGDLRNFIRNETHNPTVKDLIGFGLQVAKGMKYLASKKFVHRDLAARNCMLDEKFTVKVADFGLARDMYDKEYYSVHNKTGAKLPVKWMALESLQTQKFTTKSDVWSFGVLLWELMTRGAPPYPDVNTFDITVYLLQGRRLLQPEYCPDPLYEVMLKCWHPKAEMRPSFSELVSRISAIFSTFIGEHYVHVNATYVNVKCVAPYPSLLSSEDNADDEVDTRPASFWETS
Method: as §1

[4] = test system: TRF1 protein in CHA 9-3 nuclear extracts; assay: Western blot of nuclear TRF1 in CHA 9-3 cells; format: cell-based, mouse; details: 10 μM
Method: Blots were incubated with the primary antibodies anti-TRF1 1:500 (home-made monoclonal Rat, CNIO; TRF-78, ABCAM, ab10579) and with anti-SMC1 1:2000 (Bethyl Laboratories #A300-055A) as loading control. For nuclear protein preparation, the Nuclear/Cytosol Fractionation Kit (K266-100, BioVision) was used according to the manufactures protocol.

[5] = 1 h, 1 h, read-out: Inhibition pAKT (Ser 473) with regard to DMSO
[6] = 4 h, 4 h, read-out: Inhibition pAKT (Ser 473) with regard to DMSO
[7] = 8 h, 8 h, read-out: Inhibition pAKT (Ser 473) with regard to DMSO
[8] = 16 h, 16 h, read-out: Inhibition pAKT (Ser 473) with regard to DMSO
[9] = 24 h, 24 h, read-out: Inhibition pAKT (Ser 473) with regard to DMSO

Row | Compound | Inhibition of any kinase of the 24 kinase panel (in words) [1] | p-AKT S473 inhibition (in words) [2] | inhibition at 10 µM ([2]; read-out: Decrease of p-AKT S473 inhibition after 24 h as compared to 1-h treatment) [%] | inhibition at 10 µM [2, 5] [%] | inhibition at 10 µM [2, 6] [%] | inhibition at 10 µM [2, 7] [%] | inhibition at 10 µM [2, 8] [%] | inhibition at 10 µM [2, 9] [%] | IC50 (PI3K (p110α)) [nM] | Frequency of MTS events per metaphase compared to DMSO (CHA 9-3 cells) | Inhibition of PI3K downstream targets PRAS40 (T246) and pS6 (S235/236) (in words) [3] | Formation of MTS in IPSCs (IPSCs) | inhibition at 1 µM (IKK-beta) [%] | inhibition at 1 µM (AKT2) [%] | inhibition at 1 µM (FAK) [%] | inhibition at 1 µM (RPS6KA1) [%] | inhibition at 1 µM (INS-R) [%] | inhibition at 1 µM (MET) [%] | TRF1 protein levels in nuclear extracts [4]
1 | Cc1cnc2c(N3CCOCC3)nc(-c3ccc(NC(=O)Nc4ccc(C(=O)N5CCN(C)CC5)cc4)cc3)cn12 [ETP-47228] | negligible inhibition of any kinase tested | strongly inhibited | 35 | 90 | 93 | 78 | 66 | 59 | 2.6 | significantly increased | bona fide inhibitors of the PI3K/AKT axis | induce formation of MTS | -10 | -8 | -7.5 | -1.5 | -3 | 3 | significantly decreased
2 | CS(=O)(=O)N1CCN(Cc2cc3c(N4CCOCC4)nc(-c4cnc(N)nc4)cn3n2)CC1 [ETP-47037] | negligible inhibition of any kinase tested | strongly inhibited |  | 92 | 97 | 96 | 97 | 94 | 0.99 | significantly increased | bona fide inhibitors of the PI3K/AKT axis | induce formation of MTS | 1 | -7.5 | 14.5 | -4.5 | 5 | 3 | significantly decreased
